Reference: patent publication US20050266498A1, “Method for screening biomolecule activity regulator” (priority 1999, published 2005)
Like-named read-outs stand apart in the source and are kept apart here. Ends that are not written are not given here.

Tests used:
[1] = target: T1, NS3 protease (MBP-NS34a) (Hepatitis C virus genotype 1b, UniProt P26662); assay: NS3 protease inhibitory activity test using substrate cleavage reaction as index; type: biochemical, human hepatitis C virus
T1 construct: (including 979th to 1710th amino acids); made in house; host or cells: Escherichia coli XL2-Blue
T1 sequence (P26662 979-1710): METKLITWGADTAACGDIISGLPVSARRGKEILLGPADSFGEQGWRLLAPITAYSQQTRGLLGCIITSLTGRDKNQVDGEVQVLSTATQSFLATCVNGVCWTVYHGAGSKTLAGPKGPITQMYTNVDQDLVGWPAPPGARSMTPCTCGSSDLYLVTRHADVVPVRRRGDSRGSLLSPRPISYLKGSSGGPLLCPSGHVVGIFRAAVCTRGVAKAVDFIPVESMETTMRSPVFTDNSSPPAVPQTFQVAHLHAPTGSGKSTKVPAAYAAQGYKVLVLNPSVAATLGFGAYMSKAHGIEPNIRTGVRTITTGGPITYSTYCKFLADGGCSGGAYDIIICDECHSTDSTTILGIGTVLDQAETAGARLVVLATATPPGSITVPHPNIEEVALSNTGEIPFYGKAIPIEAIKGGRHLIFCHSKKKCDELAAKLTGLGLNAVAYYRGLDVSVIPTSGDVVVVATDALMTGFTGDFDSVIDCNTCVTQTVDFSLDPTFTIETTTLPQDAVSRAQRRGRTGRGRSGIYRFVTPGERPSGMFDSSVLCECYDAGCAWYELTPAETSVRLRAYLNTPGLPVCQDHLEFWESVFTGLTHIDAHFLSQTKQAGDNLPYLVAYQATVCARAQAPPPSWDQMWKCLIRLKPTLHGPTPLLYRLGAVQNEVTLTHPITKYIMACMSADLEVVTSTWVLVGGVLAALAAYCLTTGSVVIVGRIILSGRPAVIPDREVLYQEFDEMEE
Method: An NS3 protease cleavage sequence between NS5a and NS5b in the HCV polypeptide was synthesized. The protease inhibitory ability of each of the synthetic peptides was examined according to the method of Kakiuchi et al., in which a synthetic substrate having an amino terminus labeled with a dansyl group was reacted in the presence of a protease and a cleavage degree is measured by reverse phase HPLC (Biochem. Diophys. Res. Commun., 210, 1059, 1995). 1 μg of the purified MBP-NS34a and a reaction mixture (50 mM Tris-HCl (pH 7.5), 30 mM NaCl, 5 MM MgCl2 and 10 mM DTT) containing an evaluation sample prepared at an appropriate concentration were incubated at 25° C. for 15 minutes. To the solution, the synthesized substrate was added at a final concentration of 50 μM, and the mixture was allowed to react at 37° C. for 1 to 3 hours. Subsequently, the enzymatic reaction was stopped by adding a reaction-stopping solution (20% acetonitrile, 0.1% TFA) in a volume 9 times as much as the reaction volume. Then, the cleavaged peak of the synthesized substrate was detected (excited at 340 nm and measured at 510 nm) by a reverse phase column (YMC-AM-302) to calculate the cleavage rate when the inhibitor was added. Further, a value obtained by dividing this cleavage rate when the inhibitor was added by the cleavage rate when no inhibitor was added, was subtracted from 1 and then multiplied by 100. The obtained value was used as the inhibition rate (%) of the evaluated drug. In the above method, the peptide concentration inhibiting 50% of the protease activity (IC50) was calculated (Table 2).

[2] = target: T2, MBP-NS34a (Hepatitis C virus genotype 1b, UniProt P26662); assay: Phage ELISA: inhibition of binding of phage peptide and MBP-NS34a by library compounds; design: species or system human hepatitis C virus; conditions: for effect on binding of various phages to NS34a (figure legend): FIG. 3: clones other than phage peptide K13, FIG. 4: any clone; for inhibition of the binding of the MBP-NS34a and the phage peptide: compound serially diluted, OD 405 nm (FIG. 3, FIG. 4)
T2 construct: (including 979th to 1710th amino acids); made in house; host or cells: Escherichia coli XL2-Blue
T2 sequence (P26662 979-1710): as above
Method: A binding inhibitor was screened by using the above phage ELISA system. As peptides used for screening, the phage peptides whose protease inhibitory activity was confirmed by using the synthetic peptides were prepared in an amount required for screening according to the method of Example 2 <3>. Each well of a 96-well microtiter plate was coated by using 50 μl of the MBP-NS34a protein solution prepared at 10 μg/ml. The plate was blocked by using 100 μl of 0.5% BSA solution prepared with 10 mM NaHCO3 and rinsed once with 200 μl of TBS buffer for each well. A mixed solution of a compound in a chemical library (synthesized in our company) diluted to an appropriate concentration and each phage prepared as described above was prepared, and the mixture was added to each well coated with the MBP-NS34a protein in an amount of 100 μl and incubated overnight at 4° C. Each well was washed with 200 μl of TBS buffer four times. Then, 50 μl of horseradish peroxidase (HRP)-conjugated sheep anti-M13 phage diluted 2000 times with 5% skim milk was introduced into each well and incubated at room temperature for 1 hour.
Each well was washed with 200 μl of TBS containing 0.5% Tween-20, five times. Then, 100 μl of ABTS solution was added thereto and further incubated at room temperature. The optical density at 405 nm was measured by using a 96-well plate reader (BIO-RAD). There was selected Compound HCP1271 (Compound 5 described in Japanese Patent Laid-Open (KOKAI) No. 2000-7645), in the presence of which the optical density by binding of the MBP-NS34a and the phage peptide was lower than the optical density observed in the absence of the compound. Further, this inhibitory compound was serially diluted and its influence on the binding of 5 kinds of other phage peptides, which inhibited the NS3 protease activity, was similarly determined by the phage ELISA method. […] Further, since a compound HCP1231 similar to HCP1271, was retrieved by the search of the chemical library, its NS3 protease activity inhibitory ability and influence on the binding of the phage peptide and the NS3 protease were examined. […] That is, it was shown that the compound obtained from screening of the inhibitor for binding of the phage peptide and the protease protein could inhibit the protease activity very well.

[3] = target: T2, MBP-NS34a; assay: Phage ELISA: inhibition of binding of phage peptide and MBP-NS34a by NS4a peptide 4A18-40; design: species or system human hepatitis C virus; conditions: 4A18-40 peptide in 10-fold and 20-fold molar excess (FIG. 2)
Description: A possibility that an action site of each phage peptide clone obtained as described above and that of the NS4a peptide derived from virus known to be activated by the binding to the NS3 protein were identical or overlapped was examined. A partial peptide of the NS4a peptide composed of the 18th to 40th residues from the amino terminus (referred to as 4A18-40 peptide) is known as a minimal region required to enhance the NS3 protease activity (Tanji et al., J. Virol., 69, 4017-4026, 1995). Accordingly, an influence on the binding of each phage peptide and the MBP-NS34a protein was analyzed by the phage ELISA method using a chemically synthesized 4A18-40 peptide ([…], SEQ ID NO; 19). 10 μg/ml of the MBP-NS34a protein to which the 4A18-40 peptide was added in an amount of 10 or 20 times in excess in a molar ratio was immobilized on each well of a 96-well microtiter plate. The plate was blocked by using 100 μl of 0.5% BSA solution prepared with 10 mM NaHCO3, and rinsed once with 200 μl of TBS buffer. […]
Each well was washed with 200 μl of TBS containing 0.5% Tween 20 five times. […] The optical density at 405 nm was measured by a 96-well plate reader (BIO-RAD). The optical density due to binding of the MBP-NS34a and the phage peptide observed in the presence of the NS4a peptide was measured.

## CCCCCCNC(=O)c1cc(Cl)ccc1NS(=O)(=O)c1ccc(Cl)cc1 [HCP1231]
[1]
  NS3 protease activity inhibitory ability (in words): very weak protease activity inhibitory activity
[2]
  effect on binding of various phages to NS34a (figure legend): Binding of any clone was not inhibited
  inhibition of the binding of the MBP-NS34a and the phage peptide: scarcely inhibited the binding

## O=C(Nc1ccc(Oc2c(Cl)cc(Cl)cc2Cl)cc1)c1cc(Cl)ccc1NS(=O)(=O)c1ccc2ccccc2c1 [HCP1271]
[1]; method of Example 3 <1>, read-out: NS3 protease activity IC50 value
  IC50: 2.2 µM
[2]
  effect on binding of various phages to NS34a (figure legend): inhibited in a concentration-dependent manner
  inhibition of the binding of the MBP-NS34a and the phage peptide: concentration-dependently inhibited the binding

## IWHFSFMWI [Clone K1, IWHFSFMWI]
[1]
  IC50: 15 µM

## LTTGSVVIVGRIILSGRPAVVPD [4A18-40 peptide]
[3]
  inhibition of binding of phage clone K13 to the MBP-NS34a protein: increasingly inhibited
[3]; listed as NS4a peptide
  inhibition of binding of phage clone K13 to the MBP-NS34a protein: inhibited the binding in a concentration-dependent manner

## WVFFWLSRP [Clone J95, WVFFWLSRP]
[1]
  IC50: 15 µM
